Source: ChEMBL document CHEMBL1201862, “PubChem BioAssay data set” (2004)
Activity calls are given as the source filed them.

How the values were obtained:
[1] = molecular target: T1, Neuropeptide Y receptor type 2 (Homo sapiens, UniProt P49146); assay: Fluorescence-based counterscreen for agonists of NPY-Y1: cell-based high-throughput dose response assay for agonists of NPY-Y2.; assay type: functional
T1 sequence (P49146 whole entry): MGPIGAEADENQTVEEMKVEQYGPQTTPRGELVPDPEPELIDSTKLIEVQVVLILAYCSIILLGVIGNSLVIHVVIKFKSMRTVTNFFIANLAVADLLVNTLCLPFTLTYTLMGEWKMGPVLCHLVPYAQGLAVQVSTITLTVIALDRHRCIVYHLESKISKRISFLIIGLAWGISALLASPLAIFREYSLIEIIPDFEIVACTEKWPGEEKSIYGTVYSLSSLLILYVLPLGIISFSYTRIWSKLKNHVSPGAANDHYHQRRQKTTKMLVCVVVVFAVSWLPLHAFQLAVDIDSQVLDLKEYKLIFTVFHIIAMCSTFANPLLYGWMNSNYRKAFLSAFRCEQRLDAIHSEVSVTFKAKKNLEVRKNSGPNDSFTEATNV

HEK293 = assay: Fluorescence-based counterscreen for potentiators or agonists of NPY-Y1: cell-based high-throughput dose response assay for inhibitors of cyclic nucleotide gated ion channel (CNGC) activity. In this assay, the parental HEK293 cell line transfected with a cyclic-nucleotide gated ion channel (CNGC)-based cAMP sensor is used to measure inhibition of isoproterenol-induced CNGC …; assay type: functional; details: Homo sapiens
[2] = molecular target: T2, Neuropeptide Y receptor type 1 (Homo sapiens, UniProt P25929); assay: Fluorescence-based dose response cell-based high-throughput screening assay for agonists of NPY-Y1. [Related pubchem assays: 1697 (Screening assay (NPY-Y1 agonists).), 1359 (Screening assay (NPY-Y2 potentiators or agonists).), 1304 (Screening assay (NPY-Y1 potentiators or agonists).), 1704 (Screening assay (CNGC inhibitors).), 1791 (Summary AID.)]; assay type: functional
T2 sequence (P25929 whole entry): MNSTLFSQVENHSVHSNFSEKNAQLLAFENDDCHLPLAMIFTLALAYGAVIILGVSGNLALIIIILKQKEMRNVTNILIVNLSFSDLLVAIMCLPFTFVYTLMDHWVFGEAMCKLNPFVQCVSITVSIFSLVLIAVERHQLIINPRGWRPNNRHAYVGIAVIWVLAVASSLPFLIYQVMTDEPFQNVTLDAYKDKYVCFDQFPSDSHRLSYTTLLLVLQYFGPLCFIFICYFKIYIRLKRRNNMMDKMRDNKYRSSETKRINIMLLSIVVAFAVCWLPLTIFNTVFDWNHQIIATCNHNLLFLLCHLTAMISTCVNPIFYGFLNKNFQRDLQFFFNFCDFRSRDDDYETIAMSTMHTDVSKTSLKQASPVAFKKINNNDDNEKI

[3] = molecular target: Transitional endoplasmic reticulum ATPase (Homo sapiens, UniProt P55072, C522A); assay: C522A mutant p97 ATPase inhibitors, dose response, counter-screen for p97 inhibitor project, biochemical, luminescence (AID 1544)
Sequence of Transitional endoplasmic reticulum ATPase (Homo sapiens, UniProt P55072, C522A) (P55072 2-806 C522A limits assumed): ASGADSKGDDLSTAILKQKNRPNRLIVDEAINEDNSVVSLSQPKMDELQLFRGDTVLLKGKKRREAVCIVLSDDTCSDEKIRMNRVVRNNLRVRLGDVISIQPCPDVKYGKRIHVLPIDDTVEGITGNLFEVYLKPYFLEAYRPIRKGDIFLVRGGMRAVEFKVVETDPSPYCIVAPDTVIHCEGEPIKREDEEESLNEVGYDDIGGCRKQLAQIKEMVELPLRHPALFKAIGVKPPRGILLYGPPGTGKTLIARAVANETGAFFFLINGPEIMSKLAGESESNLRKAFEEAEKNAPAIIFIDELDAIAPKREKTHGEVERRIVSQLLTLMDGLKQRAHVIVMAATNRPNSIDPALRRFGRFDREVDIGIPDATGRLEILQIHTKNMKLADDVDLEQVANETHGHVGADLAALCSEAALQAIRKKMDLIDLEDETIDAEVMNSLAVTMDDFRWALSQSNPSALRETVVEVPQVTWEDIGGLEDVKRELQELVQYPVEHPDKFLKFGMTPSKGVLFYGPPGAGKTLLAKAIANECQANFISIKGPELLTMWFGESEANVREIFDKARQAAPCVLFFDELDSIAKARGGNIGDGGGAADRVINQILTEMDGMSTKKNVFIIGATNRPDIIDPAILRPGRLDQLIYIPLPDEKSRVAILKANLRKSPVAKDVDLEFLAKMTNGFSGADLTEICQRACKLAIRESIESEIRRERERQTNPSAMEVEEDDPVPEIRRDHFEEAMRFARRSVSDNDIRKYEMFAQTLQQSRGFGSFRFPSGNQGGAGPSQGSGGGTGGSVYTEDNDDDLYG

[4] = molecular target: Transitional endoplasmic reticulum ATPase (Homo sapiens, UniProt P55072); assay: p97 ATPase inhibitors, dose response, biochemical (AID 1534)
Sequence of Transitional endoplasmic reticulum ATPase (Homo sapiens, UniProt P55072) (P55072 whole entry): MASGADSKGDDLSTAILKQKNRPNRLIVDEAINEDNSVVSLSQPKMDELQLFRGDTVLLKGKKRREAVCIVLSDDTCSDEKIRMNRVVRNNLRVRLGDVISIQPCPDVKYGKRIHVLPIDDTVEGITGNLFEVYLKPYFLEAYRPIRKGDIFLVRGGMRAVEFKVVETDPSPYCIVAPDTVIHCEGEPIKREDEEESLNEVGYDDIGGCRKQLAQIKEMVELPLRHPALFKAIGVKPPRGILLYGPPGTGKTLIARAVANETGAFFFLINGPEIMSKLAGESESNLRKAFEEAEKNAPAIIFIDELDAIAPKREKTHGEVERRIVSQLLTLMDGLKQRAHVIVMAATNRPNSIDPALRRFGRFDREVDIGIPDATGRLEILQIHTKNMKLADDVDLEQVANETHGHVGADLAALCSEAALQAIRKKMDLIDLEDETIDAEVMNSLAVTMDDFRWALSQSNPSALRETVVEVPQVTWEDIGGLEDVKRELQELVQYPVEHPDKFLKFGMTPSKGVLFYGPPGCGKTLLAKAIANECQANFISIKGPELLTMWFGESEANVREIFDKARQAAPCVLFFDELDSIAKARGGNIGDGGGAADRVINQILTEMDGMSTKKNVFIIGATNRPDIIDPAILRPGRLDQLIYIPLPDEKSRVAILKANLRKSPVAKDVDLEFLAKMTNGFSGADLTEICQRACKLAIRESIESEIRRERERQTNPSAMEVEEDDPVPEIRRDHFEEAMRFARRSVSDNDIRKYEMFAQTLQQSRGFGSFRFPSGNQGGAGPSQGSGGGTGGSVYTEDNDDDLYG

[5] = molecular target: T3, Microphthalmia-associated transcription factor (Homo sapiens, UniProt O75030); assay: reducers of TRPM1 reporter luminescence, concentration series – cell-based, SK-MEL-5, cherry-picked, set 3, MITF inhibitor project, dose response (AID 493073); assay type: functional;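 further: SK-MEL-5 melanoma cells with luciferase driven by the MITF target TRPM1 promoter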
T3 sequence (O75030 whole entry): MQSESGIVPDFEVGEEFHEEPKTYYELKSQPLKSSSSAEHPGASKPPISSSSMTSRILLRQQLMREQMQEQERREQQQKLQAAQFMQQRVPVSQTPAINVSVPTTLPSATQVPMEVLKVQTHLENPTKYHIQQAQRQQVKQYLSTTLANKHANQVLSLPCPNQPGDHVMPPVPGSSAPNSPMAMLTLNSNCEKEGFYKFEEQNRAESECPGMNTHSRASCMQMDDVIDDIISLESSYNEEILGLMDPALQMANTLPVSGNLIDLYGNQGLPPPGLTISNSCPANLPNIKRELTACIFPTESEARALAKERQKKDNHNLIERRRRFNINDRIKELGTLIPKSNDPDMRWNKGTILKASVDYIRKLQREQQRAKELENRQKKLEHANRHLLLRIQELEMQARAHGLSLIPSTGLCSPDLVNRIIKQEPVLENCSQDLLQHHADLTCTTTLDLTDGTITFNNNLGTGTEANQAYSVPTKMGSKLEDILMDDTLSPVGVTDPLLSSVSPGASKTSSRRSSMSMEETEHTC

Cytochrome P450 2C19 = Cytochrome P450 2C19 (Homo sapiens, UniProt P33261); assay: qHTS Assay for Inhibitors and Substrates of Cytochrome P450 2C19. [Related pubchem assays: 410 ]; assay type: ADME; details: read-out: Potency
Sequence of Cytochrome P450 2C19 (P33261 whole entry): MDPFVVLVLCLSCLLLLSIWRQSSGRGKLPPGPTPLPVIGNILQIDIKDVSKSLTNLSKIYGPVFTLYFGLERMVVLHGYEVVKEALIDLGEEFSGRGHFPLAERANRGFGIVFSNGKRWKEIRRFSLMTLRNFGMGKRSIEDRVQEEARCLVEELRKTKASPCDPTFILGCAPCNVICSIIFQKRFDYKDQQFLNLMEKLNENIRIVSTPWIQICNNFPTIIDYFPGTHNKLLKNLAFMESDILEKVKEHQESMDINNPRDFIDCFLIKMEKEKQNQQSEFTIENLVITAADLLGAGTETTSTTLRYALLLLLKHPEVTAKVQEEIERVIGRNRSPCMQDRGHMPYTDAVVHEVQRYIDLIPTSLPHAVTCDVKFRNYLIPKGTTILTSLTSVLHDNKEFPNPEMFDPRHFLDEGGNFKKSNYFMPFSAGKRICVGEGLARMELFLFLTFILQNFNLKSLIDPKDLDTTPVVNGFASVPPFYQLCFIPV

Cytochrome P450 2D6 = Cytochrome P450 2D6 (Homo sapiens, UniProt P10635); assay: qHTS Assay for Inhibitors and Substrates of Cytochrome P450 2D6. [Related pubchem assays: 410 ]; assay type: ADME; details: read-out: Potency
Sequence of Cytochrome P450 2D6 (P10635 whole entry): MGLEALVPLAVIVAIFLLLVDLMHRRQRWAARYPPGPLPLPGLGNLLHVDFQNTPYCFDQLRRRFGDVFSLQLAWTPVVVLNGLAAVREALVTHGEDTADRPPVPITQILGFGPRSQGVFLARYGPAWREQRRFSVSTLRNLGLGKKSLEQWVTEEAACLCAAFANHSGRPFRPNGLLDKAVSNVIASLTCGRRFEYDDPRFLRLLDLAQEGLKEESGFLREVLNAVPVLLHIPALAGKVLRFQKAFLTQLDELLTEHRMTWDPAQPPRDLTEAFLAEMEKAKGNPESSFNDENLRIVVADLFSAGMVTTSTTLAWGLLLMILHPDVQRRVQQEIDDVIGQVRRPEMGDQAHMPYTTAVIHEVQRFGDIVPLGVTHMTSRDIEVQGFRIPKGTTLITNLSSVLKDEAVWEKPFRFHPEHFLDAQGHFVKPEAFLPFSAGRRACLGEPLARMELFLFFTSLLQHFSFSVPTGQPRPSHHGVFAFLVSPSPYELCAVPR

[6] = luciferase reporter signal suppression in cells – H4 neuroglioma cells, luminescence, dose response (AID 1990); assay type: functional, cell-based
[7] = luciferase reporter signal reduction – luminescence, H4-C neuroglioblastoma cells, dose response (AID 2458); assay type: functional, cell-based;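 further: H4 neuroglioblastoma cells stably carrying a luciferase reporter gene fusion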
cells = assay type: functional, cell-based
[8] = alpha-synuclein stem-loop luciferase translation blockers – H4 neuroglioma cells, luminescence, confirmation (AID 1988); assay type: functional, cell-based
[9] = alpha-synuclein stem-loop translation blockers – luminescence, H4 neuroglioblastoma cells, dose confirmation, confirmation (AID 2454); assay type: functional, cell-based;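 further: H4 neuroglioblastoma cells carrying an alpha-synuclein 5'UTR luciferase reporter; potency for inhibition of the luciferase signal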
Aspartyl aminopeptidase = molecular target: T4, Aspartyl aminopeptidase (Plasmodium falciparum 3D7, UniProt Q8I2J3)
T4 sequence (Q8I2J3 whole entry): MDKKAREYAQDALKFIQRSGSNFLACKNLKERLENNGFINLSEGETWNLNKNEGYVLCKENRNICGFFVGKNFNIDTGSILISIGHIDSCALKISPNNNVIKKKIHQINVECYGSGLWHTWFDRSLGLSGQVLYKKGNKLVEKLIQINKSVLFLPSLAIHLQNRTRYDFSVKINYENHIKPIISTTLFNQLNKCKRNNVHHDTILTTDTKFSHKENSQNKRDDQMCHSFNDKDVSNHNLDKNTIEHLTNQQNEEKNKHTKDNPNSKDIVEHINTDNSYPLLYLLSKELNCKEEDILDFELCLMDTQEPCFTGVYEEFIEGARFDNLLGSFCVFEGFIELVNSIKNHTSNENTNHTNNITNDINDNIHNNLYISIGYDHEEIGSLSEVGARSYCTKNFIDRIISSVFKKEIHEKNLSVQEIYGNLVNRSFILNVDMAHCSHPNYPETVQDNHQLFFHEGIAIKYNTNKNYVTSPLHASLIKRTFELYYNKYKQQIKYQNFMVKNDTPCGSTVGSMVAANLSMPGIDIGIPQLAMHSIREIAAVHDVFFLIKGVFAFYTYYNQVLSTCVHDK

Procathepsin L = Procathepsin L (Homo sapiens, UniProt P07711)
Sequence of Procathepsin L (P07711 whole entry): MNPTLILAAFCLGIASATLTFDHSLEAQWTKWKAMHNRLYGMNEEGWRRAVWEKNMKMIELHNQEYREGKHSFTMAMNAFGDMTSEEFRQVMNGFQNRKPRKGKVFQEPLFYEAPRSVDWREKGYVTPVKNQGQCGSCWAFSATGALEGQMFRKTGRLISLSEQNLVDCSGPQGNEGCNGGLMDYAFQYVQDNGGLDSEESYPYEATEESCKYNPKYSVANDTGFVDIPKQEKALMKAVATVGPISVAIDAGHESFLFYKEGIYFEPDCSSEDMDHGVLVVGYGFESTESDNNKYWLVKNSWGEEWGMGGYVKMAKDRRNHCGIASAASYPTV

Large T antigen = Large T antigen (Simian virus 40, UniProt P03070); assay type: functional, Betapolyomavirus macacae;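 further: Confirmatory-stage PubChem screen for compounds that inhibit SV40 T antigen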
Sequence of Large T antigen (P03070 whole entry): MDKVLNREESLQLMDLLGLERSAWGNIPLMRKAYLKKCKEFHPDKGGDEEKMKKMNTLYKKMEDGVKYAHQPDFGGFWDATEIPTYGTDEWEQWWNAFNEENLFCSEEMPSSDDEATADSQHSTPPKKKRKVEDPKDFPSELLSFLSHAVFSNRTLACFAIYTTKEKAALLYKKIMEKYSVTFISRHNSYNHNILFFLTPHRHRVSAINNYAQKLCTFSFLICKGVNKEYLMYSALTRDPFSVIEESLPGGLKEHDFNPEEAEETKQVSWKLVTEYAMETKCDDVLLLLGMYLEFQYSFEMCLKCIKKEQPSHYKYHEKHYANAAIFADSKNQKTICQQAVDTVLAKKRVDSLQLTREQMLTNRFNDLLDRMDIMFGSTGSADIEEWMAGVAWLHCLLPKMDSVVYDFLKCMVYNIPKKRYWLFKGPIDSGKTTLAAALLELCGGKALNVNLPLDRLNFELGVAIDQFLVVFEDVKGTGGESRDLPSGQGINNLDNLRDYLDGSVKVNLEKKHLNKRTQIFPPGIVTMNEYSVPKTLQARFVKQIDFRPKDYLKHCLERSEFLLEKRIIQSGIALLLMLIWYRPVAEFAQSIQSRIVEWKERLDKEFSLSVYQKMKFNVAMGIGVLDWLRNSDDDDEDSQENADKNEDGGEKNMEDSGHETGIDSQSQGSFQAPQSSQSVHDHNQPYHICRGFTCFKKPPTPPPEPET

[10] = molecular target: Intestinal-type alkaline phosphatase (Homo sapiens, UniProt P09923); assay: activation of human intestinal alkaline phosphatase – biochemical, dose response (AID 488873); assay type: functional
[11] = molecular target: FAD-linked sulfhydryl oxidase ALR (Homo sapiens, UniProt P55789); assay: ALR-catalysed DTT oxidation blockers – biochemical, H2O2 detection, luminescence, cherry-pick, dose response (AID 493248)
Sequence of FAD-linked sulfhydryl oxidase ALR (P55789 whole entry): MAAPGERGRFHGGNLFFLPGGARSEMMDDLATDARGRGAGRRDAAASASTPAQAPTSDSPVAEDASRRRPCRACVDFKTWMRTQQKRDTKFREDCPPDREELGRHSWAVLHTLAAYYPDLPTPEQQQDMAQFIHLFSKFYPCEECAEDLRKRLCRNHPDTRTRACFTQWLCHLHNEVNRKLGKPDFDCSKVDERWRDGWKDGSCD

[12] = molecular target: Intestinal-type alkaline phosphatase (Mus musculus, UniProt P24822); assay: mouse intestinal alkaline phosphatase activators, dose response, biochemical, luminescence, uHTS hits (AID 488783); assay type: functional
Sequence of Intestinal-type alkaline phosphatase (Mus musculus, UniProt P24822) (P24822 whole entry): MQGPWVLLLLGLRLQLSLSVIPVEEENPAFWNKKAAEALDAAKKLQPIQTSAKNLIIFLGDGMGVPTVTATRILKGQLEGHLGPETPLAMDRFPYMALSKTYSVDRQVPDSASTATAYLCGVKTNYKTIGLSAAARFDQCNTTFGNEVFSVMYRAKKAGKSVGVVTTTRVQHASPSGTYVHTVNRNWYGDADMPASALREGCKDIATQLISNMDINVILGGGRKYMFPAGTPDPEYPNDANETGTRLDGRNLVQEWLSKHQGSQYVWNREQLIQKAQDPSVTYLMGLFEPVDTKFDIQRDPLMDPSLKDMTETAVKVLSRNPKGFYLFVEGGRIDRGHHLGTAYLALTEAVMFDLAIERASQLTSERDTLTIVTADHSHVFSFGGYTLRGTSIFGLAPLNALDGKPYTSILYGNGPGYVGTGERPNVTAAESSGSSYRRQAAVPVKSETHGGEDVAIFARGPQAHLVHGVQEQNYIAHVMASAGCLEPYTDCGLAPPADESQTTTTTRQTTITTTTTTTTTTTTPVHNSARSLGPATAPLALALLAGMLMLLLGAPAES

[13] = molecular target: T5, Alkaline phosphatase, tissue-nonspecific isozyme (Homo sapiens, UniProt P05186); assay: activation of tissue-nonspecific alkaline phosphatase – biochemical, TNAP isozyme, mouse IAP uHTS hits, selectivity assay for mouse IAP activator project, dose response (AID 488880); assay type: functional
T5 sequence (P05186 whole entry): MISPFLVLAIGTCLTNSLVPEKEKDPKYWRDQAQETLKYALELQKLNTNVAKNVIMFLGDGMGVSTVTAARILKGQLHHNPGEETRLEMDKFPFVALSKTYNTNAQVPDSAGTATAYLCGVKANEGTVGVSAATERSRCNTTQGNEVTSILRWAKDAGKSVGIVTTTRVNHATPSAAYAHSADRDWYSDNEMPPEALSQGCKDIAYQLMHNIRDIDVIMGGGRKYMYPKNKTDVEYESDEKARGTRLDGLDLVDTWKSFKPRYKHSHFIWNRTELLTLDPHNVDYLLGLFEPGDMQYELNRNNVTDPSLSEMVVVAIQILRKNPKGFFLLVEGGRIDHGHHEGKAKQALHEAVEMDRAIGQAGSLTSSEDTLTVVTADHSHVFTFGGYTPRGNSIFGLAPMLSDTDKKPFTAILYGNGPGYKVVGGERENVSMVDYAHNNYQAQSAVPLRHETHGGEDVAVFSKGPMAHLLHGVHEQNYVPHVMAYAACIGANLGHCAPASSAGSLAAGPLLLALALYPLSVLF

Albumin = Albumin (Bos taurus, UniProt P02769); assay: Counterscreen for inhibitors of T-cell receptor (TCR)-CD3 interaction: Fluorescence-based biochemical high throughput dose response assay to identify inhibitors of T-cell receptor (TCR)-CD3 interaction using a TAMRA-labeled BSA probe.; assay type: functional
Sequence of Albumin (P02769 whole entry): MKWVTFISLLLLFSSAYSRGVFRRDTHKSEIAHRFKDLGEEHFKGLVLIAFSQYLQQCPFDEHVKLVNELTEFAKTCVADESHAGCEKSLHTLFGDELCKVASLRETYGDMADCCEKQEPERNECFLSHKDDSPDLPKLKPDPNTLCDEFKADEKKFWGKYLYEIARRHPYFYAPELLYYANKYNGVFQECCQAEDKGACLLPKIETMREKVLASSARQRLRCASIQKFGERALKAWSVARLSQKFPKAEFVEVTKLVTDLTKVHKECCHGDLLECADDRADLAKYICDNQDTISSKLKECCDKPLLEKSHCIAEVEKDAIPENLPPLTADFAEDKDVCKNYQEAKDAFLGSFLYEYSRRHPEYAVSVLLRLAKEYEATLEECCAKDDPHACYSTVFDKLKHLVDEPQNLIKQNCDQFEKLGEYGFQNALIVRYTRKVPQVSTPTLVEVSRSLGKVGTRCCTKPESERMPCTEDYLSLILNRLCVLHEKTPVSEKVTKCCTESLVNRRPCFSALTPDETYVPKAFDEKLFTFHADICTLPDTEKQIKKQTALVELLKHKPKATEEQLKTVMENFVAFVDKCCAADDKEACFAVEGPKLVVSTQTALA

[14] = viability loss in THP-1 monocytes – THP-1 cells, cytotoxicity control for Vif-APOBEC3G degradation inhibitor project, dose response (AID 1117359); assay type: functional; details: THP-1

Compound: COc1ccccc1Oc1ccc(-c2cnc3ccccc3n2)cc1[N+](=O)[O-]
- EC50 [1]: > 35.4 µM (not active)
- IC50 (HEK293): > 35.4 µM (not active)
- EC50 [2]: > 35.4 µM (not active)

Compound: Cn1cc(C(=O)CCl)c2ccccc21
- IC50 [3]: > 50 µM (not active)
- IC50 [4]: > 50 µM (not active)
- AC50 [5]: 8.48 µM (active)

Compound: CCN(CC)[C@@H](C)C(=O)N1c2ccccc2Sc2ccccc21
- AC50 (Cytochrome P450 2C19): 31.6 µM (inconclusive)
- AC50 (Cytochrome P450 2D6): 20 µM (inconclusive)

Compound: O=Cc1cn(Cc2ccccc2F)c2ccccc12
- EC50 [6]: 14 µM (active)
- EC50 [7]: 3.85 µM (active)
- EC50 (cells): 1.75 µM (active)
- EC50 [8]: < 0.1 µM (active)
- EC50 [9]: 2.11 µM (active)

Compound: Oc1ccc(/C=N/N=C/c2ccc(O)c(O)c2)cc1O
- IC50 (Aspartyl aminopeptidase): 1.75 µM (active)
- IC50 (Procathepsin L): > 59.6 µM (not active)
- IC50 (Large T antigen): 1.15 µM (active)
- EC50 [10]: 27.3 µM (active)
- AC50 [11]: 0.543 µM (active)
- EC50 [12]: 18 µM (active)
- EC50 [13]: 37.4 µM (active)
- IC50 (Albumin): > 94.1 µM (inactive)
- CC50 [14]: 39.1 µM (active)
